One data set deals with T1, SULT1A1 rat (Rattus norvegicus, UniProt P17988).
T1 construct: expressed in transfected cells; host or cells: Saccharomyces cerevisiae CEN.PK102-5B (plasmids pCBJ283, pCBJ284)
In words: Titers of zosteric acid in Saccharomyces cerevisiae expressing a sulfotransferase. The format is cell-based. Particulars: S. cerevisiae CEN.PK102-5B, modified Delft medium, 10 mM p-coumaric acid, overnight 30° C. The method, then: The concentration of p-courmaric acid (pHCA) and zosteric acid in the supernatant was quantified by high performance liquid chromatography (HPLC) and compared to chemical standards. HPLC was done on a Thermo setup using a HS-F5 column and mobile phases: 5 mM ammonium formate pH 4.0 (A) and acetonitrile (B) at 1.5 mL min-1, using a gradient elution starting at 5% B. From 0.5 min after injection to 7 min, the fraction of B increased linearly from 5% to 60%, and between 9.5 min and 9.6 the fraction of B decreased back to 5%, and remaining there until 12 min. pHCA and zosteric acid were quantified by measuring absorbance at 277 nm.
The gene encoding aryl sulfotransferase SULT1A (Example 1) was cloned after a TEF1 promoter into an episomal plasmid with a 2-micron origin of replication as follows. The gene was amplified by PCR using primers CBJP633 and CBJP634. Alternatively, the gene was codon-optimized for E. coli and synthesized by GeneArt and amplified by primers CBJP635 and CBJP636. The TEF1 promoter (Jensen et al., 2014, FEMS Yeast Res 14: 238-248) was amplified by PCR using the primers PTEF1_fw and PTEF1_rv. Plasmid pCfB132 (Jensen et al., supra) was digested by restriction enzymes AsiSI and Nt.Bsml. […]

The subject of a further data set is E. coli MG1655. In words: Toxicity of unsulfated or sulfated product: growth rates of E. coli. To be noted: M9 minimal media, 0.2% glucose, pH 7, 37° C.; pHCA 10-40 mM; zosteric acid 20 mM or 40 mM.

T1 sequence (P17988 whole entry): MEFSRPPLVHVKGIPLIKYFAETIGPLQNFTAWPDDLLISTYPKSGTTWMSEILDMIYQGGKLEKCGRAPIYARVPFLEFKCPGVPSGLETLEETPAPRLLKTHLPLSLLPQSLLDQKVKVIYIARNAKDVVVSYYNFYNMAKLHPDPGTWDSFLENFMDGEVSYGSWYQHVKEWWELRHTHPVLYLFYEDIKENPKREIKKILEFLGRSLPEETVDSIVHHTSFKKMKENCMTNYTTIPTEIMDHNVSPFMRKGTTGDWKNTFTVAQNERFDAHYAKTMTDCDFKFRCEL
Experimental for E. coli MG1655: E. coli MG1655 was grown in chemically defined M9 minimal media with 0.2% glucose as a carbon source without further addition or with the additions of either 10 mM, 20 mM, 25 mM, 30 mM, 35 mM or 40 mM p-coumaric acid (pHCA), or with 20 mM or 40 mM of the sulfate ester of pHCA (zosteric acid). All media preparations had been adjusted to pH 7. Cells were grown at 37° C. with 250 rpm shaking in an orbital shaker. The growth rates were examined by following the optical density at 600 nm.

With `O=C(O)/C=C/c1ccc(OS(=O)(=O)O)cc1` [Zosteric acid, zosteric acid], the “μM ZA (averages and standard deviations of replicate experiments)” value at SULT1A1 rat (SULT1A1 rat (codon optimized for E. coli)) is 46.2 ± 3.5 µM; at SULT1A1 rat (SULT1A1 rat (native)) it was 37.8 ± 5.7 µM.

On to `O=C(O)/C=C/c1ccc(O)cc1` [pHCA, p-coumaric acid], for which, in the data set on E. coli MG1655, the “Toxicity to the cells (growth rates in exponential growth phase, OD 600 nm, FIG. 4)” value is reported as “toxic to the cells”.

These data come from US11555212B2, “Process for the production of sulfated phenolic compounds using modified Escerichia coli” (CysBio ApS, priority 2016, dated 2023).
